In PMC8675330 (Frontiers in Pharmacology, 2021):
Structures can show the parent of a compound that is named as a salt. Where two headings read alike, the source gives them in different places. Marks after values point to notes of the source that are not given here.

Columns and labels:
[1] = In vivo pharmacokinetics in plasma, brain and lung after IV, IN and IN + BorNLC co-administration; design: species or system CD-1 mice; conditions: for Kp / Cmax / Tmax / AUC(0-t): CD-1, mouse
Experimental: Healthy adult CD-1 mice (25–30 g) were acquired from Charles River Laboratories (L’Arbresle, France) and accommodated in a relative humidity of 55 ± 5%, a controlled temperature of 20 ± 2°C, and reversed 12 h light–dark cycles. The studies were always performed in the dark phase (active phase between 08h00 and 20h00). A period of at least 7 days was considered for the animals to become familiarized with the environment. Animals had ad libitum access to food (4RF21, Mucedola®, Italy) and tap water during the entire experiment period.
Before treatment, animals were anesthetized by intraperitoneal administration of a mixture of ketamine (100 mg/kg) and xylazine (10 mg/kg) to keep them immobile during IN or IV administration. Animals were randomly divided into 3 groups (n = 28) and subdivided into 7 time-points (n = 4). […] Briefly, Pluronic F-127 (18%, w/v) and Carbopol 974P (0.2%, w/v) were added to cold water, since the first guarantees the thermoreversible characteristic of the nasal gel ([Swamy and Abbas, 2012]) and the second increases the bioadhesive properties of the gel, thus increasing the residence time in the nasal cavity and improving the central delivery of antidepressant drugs. […] Anesthetized animals were instilled with 14–25 µl (2.38 mg/kg) of the gel with a polyurethane tube (24G x 19 mm) attached to a microliter syringe. Formulation delivery was performed into one of the nostrils, where the tube was inserted about 10 mm deep.
Animals were sacrificed by cervical dislocation and decapitation at 5, 15, 30, 60, 120, 240, and 480 min after administration, and heparinized tubes were used for blood collection. Blood samples were centrifuged at 1,252 g for 10 min at 4°C, and plasma supernatants were analyzed by HPLC-DAD. The mice brain and lungs were quickly removed and gently cleaned with a sterile gauze humidified with saline to remove adherent surface blood. Then, these organs were weighed and homogenized in NaCl 0.9% (3 ml/g of tissue) using a tissue homogenizer with a Teflon® pestle from Thomas Scientific (Swedesboro, NJ, United States).
Briefly, 300 μl of methanol were added to 200 μl of plasma, 200 μl of lung homogenate, or 400 μl of brain homogenate for protein precipitation. After two extractions with 700 μl of n-hexane:alcohol isoamyl (98:2, v/v) mixture, organic phases were evaporated. Last, following reconstitution with 100 μl of a mixture of 20 mM phosphate buffer pH 3.8 and acetonitrile (70:30, v/v), the plasma and lung homogenate samples were transferred to a 0.22-μm Costar® Spin-X® centrifugal filter (Corning, Inc., NY, United States) and centrifuged at 12,100 g for 3 min. All final samples were injected (20 µl) into the HPLC-DAD system, in accordance with the analytical conditions described in section 2.2.1. The detection wavelength to quantify the IS was set at 290 nm.
The remaining pharmacokinetic parameters were estimated by non-compartmental analysis using WinNonlin® version 6.4 software (Certara, Princeton, NJ). Plasma and tissue concentrations below the lower limit of quantification (LLOQ) of the analytical method were considered zero for the pharmacokinetic data analysis.
For both drugs and in all matrices, the area under the concentration–time curve from time zero (AUC) to the time of the last measurable drug concentration (AUCt) was calculated by the linear trapezoidal rule.
To evaluate drug distribution into the brain and lungs after administration, the ratios were determined based on the quotient AUCt(tissue)/AUCt(plasma). The drug targeting efficiency (DTE) was calculated following Eq. 6: DTE(%)=(AUCt(brain)/AUCt(plasma))IN/(AUCt(brain)/AUCt(plasma))IV×100 (6)
Finally, to evaluate the direct drug passage from the nose to the brain, the direct transport percentage (DTP) was determined applying Eq. 7: DTP(%)=AUCt(brain) IN−[(AUCt(brain) IV/AUCt(plasma) IV)×AUCt(plasma) IN]/AUCbrain IN×100 (7)

P-glycoprotein (P-gp) = conditions: cited from earlier work
[2] = Solubility of escitalopram and paroxetine in liquid lipids; assay type: physicochemical; conditions: 24 h stirring at 25°C, n = 3, mean ± SD; for solubility at 24 h: oil or lipid, thermodynamic from solid
Experimental: Briefly, 0.5 g of solid lipid Precirol® ATO 5 was melted in a controlled temperature water bath at 65°C. […] Regarding liquid lipids (oleic acid, Labrasol®, Labrafac™ PG, Lauroglycol™ 90, and Miglyol® 812 N), both drugs were dispersed in screw-capped tubes with the liquid compounds (0.5 ml each) and kept under mechanical stirring for 24 h at 25°C. […] An aliquot of the supernatant was diluted with the mobile phase, filtered through a 0.22-µm membrane, and analyzed. […] The HPLC-DAD apparatus and data acquisition were controlled by using Lab Solutions Software (Shimadzu Corporation, Tokyo, Japan). […] The mobile phase was composed of 20 mM phosphate buffer (pH 3.8 adjusted with orthophosphoric acid) and acetonitrile (80:20, v/v) pumped at a flow rate of 1.0 ml/min.

[3] = design: method as in Kreilgaard et al., 2008; conditions: single subcutaneous injection, three doses (escitalopram 0.240-3.90 mg/kg; paroxetine 0.270-4.40 mg/kg); ref Kreilgaard et al., 2008; cited from earlier work
[4] = significant first-pass metabolism; no reference given; cited from earlier work
[5] = inhaled or intranasal, paroxetine, brain, IN free drug, 2.38 mg/kg
[6] = inhaled or intranasal, paroxetine, lung, IN free drug, 2.38 mg/kg
[7] = inhaled or intranasal, paroxetine, plasma, IN free drug, 2.38 mg/kg
[8] = plasma, inhaled or intranasal, 2.38 mg/kg
[9] = paroxetine, brain, IV free drug, 2.38 mg/kg
[10] = paroxetine, lung, IV free drug, 2.38 mg/kg
[11] = paroxetine, plasma, IV free drug, 2.38 mg/kg
[12] = paroxetine, IN free drug vs IV, 2.38 mg/kg
[13] = Lauroglycol 90 (liquid lipid), in Lauroglycol 90
[14] = oleic acid (liquid lipid), in oleic acid
[15] = brain, inhaled or intranasal, 2.38 mg/kg
[16] = lung, inhaled or intranasal, 2.38 mg/kg

With `Fc1ccc([C@@H]2CCNC[C@H]2COc2ccc3c(c2)OCO3)cc1` [Paroxetine, Paroxetine hydrochloride] the Kp ([1]; brain/plasma, iv, 2.38 mg/kg, paroxetine, IV free drug, 2.38 mg/kg, read-out: AUCtbrain/AUCtplasma) was 0.35, the Kp ([1]; brain/plasma, other: intranasal (IN), 2.38 mg/kg, paroxetine, IN free drug, 2.38 mg/kg, read-out: AUCtbrain/AUCtplasma) was 0.82 and the Cmax [1, 5] was 283 ng/g. For the same compound, the Tmax [1, 5] was 120 min, the Cmax [1, 6] was 2820 ng/g and the Tmax [1, 6] was 60 min. The AUC(0-t) [1, 7] was 1390 ng·h/mL, the Cmax [1, 7] was 696 ng/mL and the Kp ([1]; lung/plasma, iv, 2.38 mg/kg, paroxetine, IV free drug, 2.38 mg/kg, read-out: AUCtlung/AUCtplasma) was 2.63. The Kp ([1]; lung/plasma, other: intranasal, 2.38 mg/kg, paroxetine, IN free drug, 2.38 mg/kg, read-out: AUCtlung/AUCtplasma) was 8.4, the Tmax [1, 8] was 5 min and the Tmax ([1]; plasma, iv, 2.38 mg/kg) was 5 min. It also gave a Cmax [1, 9] of 233 ng/g, a Tmax [1, 9] of 120 min and a Cmax [1, 10] of 1010 ng/g. The Tmax [1, 10] was 30 min, the AUC(0-t) [1, 11] was 1630 ng·h/mL and the Cmax [1, 11] was 820 ng/mL. The “DTE (drug targeting efficiency)” value [1, 12] was 232%, the “DTP (direct transport percentage)” value [1, 12] was 56.9% and the AUCtbrain/AUCtplasma ([1]; paroxetine, IN free drug, 2.38 mg/kg) was 0.821. The AUCtbrain/AUCtplasma ([1]; paroxetine, IV free drug, 2.38 mg/kg) was 0.354, the AUCt ([1]; paroxetine, brain, IN free drug, 2.38 mg/kg) was 68.2 ^c µg min/g and the “higher brain exposure (given by AUCt) than that of IV injection” value ([1]; paroxetine, brain, IN vs IV) was 49%. For the same compound, the AUCt [1, 9] was 34.6 ^c µg min/g, the AUCt ([1]; paroxetine, lung, IN free drug, 2.38 mg/kg) was 699 ^c µg min/g and the AUCt [1, 10] was 257 ^c µg min/g. For the same compound, the “P-gp IC50 relative to therapeutic plasma concentrations” value (P-glycoprotein (P-gp); IC50 higher than therapeutic plasma concentrations, ref Hiemke et al., 2018) was “about 150 fold”, the “P-gp inhibition IC50” value (P-glycoprotein (P-gp); in vitro, ref Feng et al., 2008) was 10 µg/mL and the solubility at 24 h [2, 13] was 13800 ± 1260 µg/mL. The solubility ([2]; in Labrasol) was 24000 ± 30500 µg/mL, the solubility at 24 h [2, 14] was 1070 ± 580 µg/mL and the “tmax in the plasma” value [3] was 4.80 to 5.40 min. For the same compound, the oral bioavailability [4] was 30 to 60%.

`CN(C)CCC[C@@]1(c2ccc(F)cc2)OCc2cc(C#N)ccc21` [Escitalopram, escitalopram oxalate] gave a Cmax [1, 15] of 133 ng/g, a Tmax [1, 15] of 60 min and a Cmax ([1]; brain, iv, 2.38 mg/kg) of 511 ng/g. The Tmax ([1]; brain, iv, 2.38 mg/kg) was 15 min, the Kp ([1]; brain/plasma, iv, 2.38 mg/kg, read-out: AUCtbrain/AUCtplasma) was 0.871 and the Kp ([1]; brain/plasma, other: intranasal (IN), 2.38 mg/kg, read-out: AUCtbrain/AUCtplasma) was 0.86. For the same compound, the Cmax [1, 16] was 2310 ng/g, the Tmax [1, 16] was 30 min and the Cmax ([1]; lung, iv, 2.38 mg/kg) was 1020 ng/g. For the same compound, the Tmax ([1]; lung, iv, 2.38 mg/kg) was 60 min, the Kp ([1]; lung/plasma, iv, 2.38 mg/kg, read-out: AUCtlung/AUCtplasma) was 2.45 and the Kp ([1]; lung/plasma, other: intranasal (IN), 2.38 mg/kg, read-out: AUCtlung/AUCtplasma) was 10.6. It also gave an AUC(0-t) [1, 8] of 507 ng·h/mL, a Cmax [1, 8] of 550 ng/mL and a Tmax [1, 8] of 5 min. It also gave an AUC(0-t) ([1]; plasma, iv, 2.38 mg/kg) of 1150 ng·h/mL, a Cmax ([1]; plasma, iv, 2.38 mg/kg) of 482 ng/mL and a Tmax ([1]; plasma, iv, 2.38 mg/kg) of 5 min. For the same compound, the AUCt ([1]; escitalopram, brain, IN free drug, 2.38 mg/kg) was 26.2 ^c µg.min/g, the AUCt ([1]; escitalopram, brain, IV free drug, 2.38 mg/kg) was 59.8 ^c µg.min/g and the AUCt ([1]; escitalopram, lung, IN free drug, 2.38 mg/kg) was 321 ^c µg.min/g. For the same compound, the AUCt ([1]; escitalopram, lung, IN free drug, 2.38 mg/kg, listed as escitalopram) was 168 µg·min/g, the AUCt ([1]; escitalopram, lung, IV free drug, 2.38 mg/kg) was 168 ^c µg.min/g and the AUCt ([1]; escitalopram, lung, IV free drug, 2.38 mg/kg, listed as escitalopram) was 321 µg·min/g. The “lung Cmax after free drug IN administration, times superior to BorNLC IN” value ([1]; escitalopram, lung, free IN vs BorNLC IN) was 3.8 times, the “lung Cmax after free drug IN administration, times superior to IV” value ([1]; escitalopram, lung, free IN vs IV) was 2.3 times and the solubility at 24 h ([2]; Labrafac PG (liquid lipid), in Labrafac PG, n.d. = not detected) was 1340 ± 1120 µg/mL. The solubility at 24 h ([2]; Labrasol (liquid lipid), in Labrasol) was 14700 ± 14000 µg/mL, the solubility at 24 h [2, 13] was 6910 ± 130 µg/mL and the solubility at 24 h [2, 14] was 840 ± 120 µg/mL. For the same compound, the “tmax in the plasma” value [3] was 3.00 to 5.40 min.
